Where two headings read alike, the source gives them in different places.
Columns and labels:
Format in all cases: cell-based
[1] = test system: Klebsiella pneumoniae ATCC 13833; assay: microbe, parasite or virus in culture; conditions: for Potentiation fold: ratio MICcompound/MICcompound+polymyxin E; for MIC in presence of colistin: with 0.25xMIC polymyxin E1 (0.12 mg/L); for MIC: Klebsiella pneumoniae, ATCC13833
Protocol: (§1) Growth inhibition or killing of bacteria was investigated using conventional methods widely described in the scientific literature. Parameters such as the Minimum Inhibitory Concentration (MIC) were determined as described in Clinical Laboratory Standard Institute (CLSI) document M07 “Methods for Dilution Antimicrobial Susceptibility Tests for Bacteria That Grow Aerobically, 11th Edition” (2018). Synergistic activity of the compounds described in the present specification were determined by measuring the variation of the MIC's compound in the absence and presence of a sub-inhibitory concentration of a suitable antibacterial agent, such as polymyxin E1. Furthermore, the Fractional Inhibitory Concentrations (FICs) were measured using a chequerboard analysis to determine the average FIC index (FICI), whose value is known to characterize the interaction between two compounds and/or drugs (≤0.5, synergistic interaction; >0.5 and <2, no interaction, additive effect; ≥2, antagonistic interaction). Furthermore, the selectivity of the compounds was investigated by measuring their cytotoxic effect on mammalian cell lines (e.g. HeLa cells).
(§2) Several methods were used to investigate the synergistic activity of the compounds, including (a) the determination of the MIC in the presence of a sub-inhibitory concentration of a suitable antibacterial agent, (b) the determination of the average FICI using a chequerboard analysis and (c) the time-kill curve analysis of a suitable agent (at a sub-inhibitory concentration) in the absence and presence of the pyrazolo[4,3-b]pyridin-6-carboxamide compound at a fixed concentration of 2 or 8 mg/L.
(§3) The MIC of the compound was determined alone and in the presence of a fixed and sub-inhibitory concentration of a suitable antibacterial agent of the polymyxin class, such as polymyxin E1 (colistin). The potentiation fold was computed as the ratio MICcompound/MICcompound+polymyxin E. Tested organisms included Escherichia coli CCUG^TKlebsiella pneumoniae ATCC 13833 and Acinetobacter baumannii ATCC 17978, which show a colistin MIC of 0.5, 0.5 and 1 mg/L, respectively.

Escherichia coli CCUG^T = assay: microbe, parasite or virus in culture; conditions: for Potentiation fold: ratio MICcompound/MICcompound+polymyxin E; for MIC in presence of colistin: with 0.25xMIC polymyxin E1 (0.12 mg/L); for MIC: Escherichia coli
Protocol: as §1, §2, §3

[2] = test system: Acinetobacter baumannii ATCC 17978; assay: microbe, parasite or virus in culture; conditions: for Potentiation fold: ratio MICcompound/MICcompound+polymyxin E; for MIC in presence of colistin: with 0.25xMIC polymyxin E1 (0.25 mg/L); for MIC: Acinetobacter baumannii, ATCC17978
Protocol: as §1, §2, §3

[3] = test system: Bacillus subtilis ATCC 6633; assay: MIC, broth microdilution (direct antibacterial activity); conditions: ATCC6633, B. subtilis ATCC 6633, compound alone, 18-24 h, read-out: MIC
Protocol: as §1
(§4) The MIC values were determined using the broth microdilution method as described in document M07 using Mueller-Hinton broth as culture medium and an initial bacterial inoculum size of 5×10^5 CFU/mL, with a final volume of 100 μL per well in a 96-well microplate. Bacterial strains were Bacillus subtilis ATCC 6633, Enterococcus faecalis ATCC 29212, Streptococcus pyogenes ATCC 12344 and Staphylococcus aureus ATCC 25923. The tested compound concentration ranged from 512 to 0.25 mg/L. Plates were incubated for 18-24 hours at 35±2° C. prior to results analysis.

[4] = test system: Staphylococcus aureus ATCC 25923; assay: as above; conditions: ATCC25923, S. aureus ATCC 25923, compound alone, 18-24 h, read-out: MIC
Protocol: as §1, §4

[5] = test system: Enterococcus faecalis ATCC 29212; assay: as above; conditions: ATCC29212, E. faecalis ATCC 29212, compound alone, 18-24 h, read-out: MIC
Protocol: as §1, §4

[6] = test system: Streptococcus pyogenes ATCC 12344; assay: as above; conditions: ATCC12344, S. pyogenes ATCC 12344, compound alone, 18-24 h, read-out: MIC
Protocol: as §1, §4

[7] = K. pneumoniae ATCC 13833, compound alone, read-out: MIC
[8] = E. coli CCUG^T, compound alone, read-out: MIC
[9] = A. baumannii ATCC 17978, compound alone, read-out: MIC

Structure (SMILES)	Potentiation fold ([1]; K. pneumoniae ATCC 13833)	MIC in presence of colistin ([1]; K. pneumoniae ATCC 13833)	MIC [1]	Potentiation fold (Escherichia coli CCUG^T; E. coli CCUG^T)	MIC in presence of colistin (Escherichia coli CCUG^T; E. coli CCUG^T)	MIC (Escherichia coli CCUG^T)	Potentiation fold ([2]; A. baumannii ATCC 17978)	MIC in presence of colistin ([2]; A. baumannii ATCC 17978)	MIC [2]	MIC [3]	MIC [4]	MIC [5]	MIC [6]	MIC [1, 7]	MIC (Escherichia coli CCUG^T; [8])	MIC [2, 9]
CCCCn1c(=O)c(C(=O)NC23CC4CC(CC(O)(C4)C2)C3)c(O)c2nn(C)cc21 [Ia, 4-(1-Butyl)-4,5-dihydro-7-hydroxy-N-(1-hydroxyadamantan-3-yl)-2-methyl-5-oxo-2H-pyrazolo[4,3-b]pyridin-6-carboxamide]	≥8	64 µg/mL	> 512 µg/mL	≥16	32 µg/mL	> 512 µg/mL	≥16	32 µg/mL	> 512 µg/mL							
CC(C)n1c(=O)c(C(=O)NC2CCCc3ccccc32)c(O)c2nn(C)cc21 (stereo not shown) [Iaa, 4,5-Dihydro-7-hydroxy-2-methyl-5-oxo-4-(2-propyl)-N-(1,2,3,4-tetrahydro-1-naphthyl)-2H-pyrazolo[4,3-b]pyridin-6-carboxamide]	≥16	32 µg/mL		≥32	16 µg/mL		≥32	16 µg/mL		16 µg/mL	64 µg/mL	64 µg/mL	32 µg/mL	> 512 µg/mL	> 512 µg/mL	> 512 µg/mL
CC(C)n1c(=O)c(C(=O)NC(c2ccccc2)c2ccccc2)c(O)c2nn(C)cc21 [Iab, 4,5-Dihydro-N-(diphenylmethyl)-7-hydroxy-2-methyl-5-oxo-4-(2-propyl)-2H-pyrazolo[4,3-b]pyridin-6-carboxamide]	≥32	16 µg/mL		≥32	16 µg/mL		≥32	16 µg/mL		16 µg/mL	32 µg/mL	32 µg/mL	32 µg/mL	> 512 µg/mL	> 512 µg/mL	> 512 µg/mL
CCCCn1c(=O)c(C(=O)NCc2ccc(F)cc2)c(O)c2nn(C)cc21 [Iac, 4-(1-Butyl)-4,5-dihydro-N-[(4-fluorophenyl)methyl]-7-hydroxy-2-methyl-5-oxo-2H-pyrazolo[4,3-b]pyridin-6-carboxamide]										64 µg/mL	128 µg/mL	64 µg/mL	32 µg/mL			
CCCCn1c(=O)c(C(=O)N[C@@H](Cc2ccccc2)C(=O)OC(C)(C)C)c(O)c2nn(C)cc21 [Iad, 1,1-Dimethylethyl (S)-2-[4-(1-butyl)-4,5-dihydro-7-hydroxy-2-methyl-5-oxo-2H-pyrazolo[4,3-b]pyridin-6-carboxamido]-3-phenylpropanoate]	≥16	32 µg/mL		≥16	32 µg/mL		≥4	128 µg/mL		32 µg/mL	256 µg/mL	128 µg/mL	64 µg/mL	> 512 µg/mL	> 512 µg/mL	> 512 µg/mL
CCCCn1c(=O)c(C(=O)Nc2ccc(F)cc2)c(O)c2nn(C)cc21 [Iae, 4-(1-Butyl)-4,5-dihydro-N-(4-fluorophenyl)-7-hydroxy-2-methyl-5-oxo-2H-pyrazolo[4,3-b]pyridin-6-carboxamide]	≥2	256 µg/mL		≥2	256 µg/mL		≥16	32 µg/mL		128 µg/mL	128 µg/mL	32 µg/mL	32 µg/mL	> 512 µg/mL	> 512 µg/mL	> 512 µg/mL
CCCCn1c(=O)c(C(=O)NC(C)(C)C)c(O)c2nn(C)cc21 [Iaf, 4-(1-Butyl)-4,5-dihydro-N-(1,1-dimethylethyl)-7-hydroxy-2-methyl-5-oxo-2H-pyrazolo[4,3-b]pyridin-6-carboxamide]	≥16	32 µg/mL		≥16	32 µg/mL		≥8	64 µg/mL		128 µg/mL	64 µg/mL	512 µg/mL	64 µg/mL	> 512 µg/mL	> 512 µg/mL	> 512 µg/mL
CCCCn1c(=O)c(C(=O)NC2CCCC2)c(O)c2nn(C)cc21 [Iag, 4-(1-Butyl)-N-cyclopentyl-4,5-dihydro-7-hydroxy-2-methyl-5-oxo-2H-pyrazolo-[4,3-b]pyridin-6-carboxamide]	≥8	64 µg/mL		≥16	32 µg/mL		≥4	128 µg/mL						> 512 µg/mL	> 512 µg/mL	> 512 µg/mL
CCCCCn1c(=O)c(C(=O)NC23CC4CC(CC(O)(C4)C2)C3)c(O)c2nn(CCO)cc21 [Io, 4,5-Dihydro-7-hydroxy-N-(1-hydroxyadamantan-3-yl)-2-(2-hydroxyethyl)-5-oxo-4-(1-pentyl)-2H-pyrazolo[4,3-b]pyridin-6-carboxamide]	≥64	8 µg/mL	> 512 µg/mL			> 512 µg/mL	≥128	4 µg/mL	> 512 µg/mL							
CCCn1c(=O)c(C(=O)NC23CC4CC(CC(C4)C2)C3)c(O)c2nn(CCOC(C)=O)cc21 [Ir, 2-(2-Acetoxyethyl)-N-(adamantan-1-yl)-4,5-dihydro-7-hydroxy-5-oxo-4-(1-propyl)-2H-pyrazolo[4,3-b]pyridin-6-carboxamide]	≥8	64 µg/mL	> 512 µg/mL	≥8	64 µg/mL	> 512 µg/mL	≥16	32 µg/mL	> 512 µg/mL							
CCCCn1c(=O)c(C(=O)NC(c2ccccc2)c2ccccc2)c(O)c2nn(C)cc21 [Iu, 4-(1-Butyl)-4,5-dihydro-N-(diphenylmethyl)-7-hydroxy-2-methyl-5-oxo-2H-pyrazolo[4,3-b]pyridin-6-carboxamide]	≥8	64 µg/mL		≥8	64 µg/mL		≥16	32 µg/mL						> 512 µg/mL	> 512 µg/mL	> 512 µg/mL
CCCCn1c(=O)c(C(=O)NC(C)(C)C)c(O)c2nn(CC)cc21 [Iw, 4-(1-Butyl)-4,5-dihydro-N-(1,1-dimethylethyl)-2-ethyl-7-hydroxy-5-oxo-2H-pyrazolo[4,3-b]pyridin-6-carboxamide]	≥16	32 µg/mL		≥32	16 µg/mL		≥8	64 µg/mL						> 512 µg/mL	> 512 µg/mL	> 512 µg/mL

From patent US12358919B2, “Antibacterial compounds” (Universita' degli Studi di Siena, priority 2019, dated 2025)
